Results from patent US20230091047A1 (priority 2019, published 2023).

Experiments:
[1] = in vitro; assay type: cell-based; details: human, HepG2 or HepG2.117 cells, 3-days incubation (unmarked values), ATPlite; mean value
Method in brief: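 Luminescent ATP quantitation served as the viability endpoint following a 3- or 4-day incubation with test compounds.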

[2] = tested on: HBV (HepG2.117 cell line, inducibly HBV producing); test: Anti-HBV activity: intracellular HBV DNA by real-time PCR in HepG2.117 cells after 3 days of treatment; assay type: cell-based, hepatitis B virus; details: Hepatitis B virus, HepG2.117, 72 h, HepG2.117 cells, 3 days of treatment, intracellular HBV DNA by real-time PCR; mean value; read-out: EC50 (μM, mean value)
Method in brief: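 First, HBV replication is induced in HepG2.117 cells by doxycycline absence. Next, serially diluted compound is added for 3 days. Finally, intracellular HBV DNA is quantified by HBV-specific real-time PCR.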

Q: For `CC[C@@H](C)Nc1nc2c(c(=O)n1-c1ccc(C(=O)NC)cc1)C[C@@H](C)N(C(=O)c1ccc(Cl)c(Cl)c1)C2` [Compound C258, 4-[(6R)-2-{[(2R)-butan-2-yl]amino}-7-(3,4-dichlorobenzoyl)-6-methyl-4-oxo-5,6,7,8-tetrahydropyrido[3,4-d]pyrimidin-3(4H)-yl]-N-methylbenzamide], which CC50 at 3 days [1] is on record?
A: > 50 µM

Q: What about the EC50 [2] of the same compound?
A: 0.05 µM

Q: Which results are given for `CNC(=O)C12CC(n3c(NC(C)C)nc4c(c3=O)C[C@@H](C)N(C(=O)c3ccc(Cl)c(Cl)c3)C4)(C1)C2` [Compound C261, 3-[(6R)-7-(3,4-dichlorobenzoyl)-6-methyl-4-oxo-2-[(propan-2-yl)amino]-5,6,7,8-tetrahydropyrido[3,4-d]pyrimidin-3(4H)-yl]-N-methylbicyclo[1.1.1]pentane-1-carboxamide]?
A: CC50 at 3 days [1]: > 50 µM; EC50 [2]: 0.34 µM

Q: Which results are given for `CC(C)Nc1nc2c(c(=O)n1[C@H]1CC[C@@H](S(C)(=O)=O)CC1)C[C@@H](C)N(C(=O)c1ccc(Cl)c(Cl)c1)C2` [Compound C262, (6R)-7-(3,4-dichlorobenzoyl)-3-[cis-4-(methanesulfonyl)cyclohexyl]-6-methyl-2-[(propan-2-yl)amino]-5,6,7,8-tetrahydropyrido[3,4-d]pyrimidin-4(3H)-one]?
A: CC50 at 3 days [1]: 22.5 µM; EC50 [2]: 0.11 µM

Q: Which CC50 at 3 days [1] does the source give for `CNc1noc2ccc(-n3c(NC(C)C)nc4c(c3=O)C[C@@H](C)N(C(=O)c3ccc(Cl)c(Cl)c3)C4)cc12` [Compound C263, (6R)-7-(3,4-dichlorobenzoyl)-6-methyl-3-[3-(methylamino)-1,2-benzoxazol-5-yl]-2-[(propan-2-yl)amino]-5,6,7,8-tetrahydropyrido[3,4-d]pyrimidin-4(3H)-one] here?
A: > 50 µM

Q: And the EC50 [2]?
A: 0.17 µM

Q: With `Cc1noc(C)c1-c1ccc(-n2c(NC(C)C)nc3c(c2=O)C[C@@H](C)N(C(=O)c2ccc(Cl)c(Cl)c2)C3)cn1` [Compound C264, (6R)-7-(3,4-dichlorobenzoyl)-3-[6-(3,5-dimethyl-1,2-oxazol-4-yl)pyridin-3-yl]-6-methyl-2-[(propan-2-yl)amino]-5,6,7,8-tetrahydropyrido[3,4-d]pyrimidin-4(3H)-one] as the compound, how does the CC50 at 3 days [1] read?
A: > 50 µM

Q: What about the EC50 [2] of the same compound?
A: 0.26 µM

Q: With `CNC(=O)c1ccc(-n2c(NC(C)C)nc3c(c2=O)C[C@@H](C)N(C(=O)c2ccc(Cl)c(Cl)c2)C3)cn1` [Compound C265] as the compound, how does the CC50 at 3 days [1] read?
A: > 50 µM

Q: And the EC50 [2]?
A: 0.18 µM

Q: For `CC(C)Nc1nc2c(c(=O)n1-c1ccc(C(=O)NC3(C(=O)O)CC3)cc1)C[C@@H](C)N(C(=O)c1ccc(Cl)c(Cl)c1)C2` [Compound C266, 1-{4-[(6R)-7-(3,4-dichlorobenzoyl)-6-methyl-4-oxo-2-[(propan-2-yl)amino]-5,6,7,8-tetrahydropyrido[3,4-d]pyrimidin-3(4H)-yl]benzamido}cyclopropane-1-carboxylic acid], which CC50 at 3 days [1] is on record?
A: > 50 µM

Q: What about the EC50 [2] of the same compound?
A: 13.4 µM

Q: Which CC50 at 3 days [1] does the source give for `COC(=O)c1ccn(-c2ccc(-n3c(NC(C)C)nc4c(c3=O)C[C@@H](C)N(C(=O)c3ccc(Cl)c(Cl)c3)C4)cc2)n1` [Compound C267, methyl 1-{4-[(6R)-7-(3,4-dichlorobenzoyl)-6-methyl-4-oxo-2-[(propan-2-yl)amino]-5,6,7,8-tetrahydropyrido[3,4-d]pyrimidin-3(4H)-yl]phenyl}-1H-pyrazole-3-carboxylate] here?
A: > 50 µM

Q: And the EC50 [2]?
A: 0.21 µM

Q: For `CNC(=O)c1ccc(-n2c(NC(C)(C)C)nc3c(c2=O)C[C@@H](C)N(C(=O)c2ccc(Cl)c(Cl)c2)C3)cc1` [Compound C269, 4-[(6R)-2-(tert-butylamino)-7-(3,4-dichlorobenzoyl)-6-methyl-4-oxo-5,6,7,8-tetrahydropyrido[3,4-d]pyrimidin-3(4H)-yl]-N-methylbenzamide], which CC50 at 3 days [1] is on record?
A: > 50 µM

Q: What about the EC50 [2] of the same compound?
A: 0.05 µM

Q: Which CC50 at 3 days [1] does the source give for `CNC(=O)c1ccc(-n2c(N3CCC[C@@H]3C)nc3c(c2=O)C[C@@H](C)N(C(=O)c2ccc(Cl)c(Cl)c2)C3)cc1` [Compound C271, 4-[(6R)-7-(3,4-dichlorobenzoyl)-6-methyl-2-[(2S)-2-methylpyrrolidin-1-yl]-4-oxo-5,6,7,8-tetrahydropyrido[3,4-d]pyrimidin-3(4H)-yl]-N-methylbenzamide] here?
A: 24.9 µM

Q: And the EC50 [2]?
A: 0.27 µM

Q: Which results are given for `CNC(=O)c1ccc(-n2c(N[C@@H](C)CO)nc3c(c2=O)C[C@@H](C)N(C(=O)c2ccc(Cl)c(Cl)c2)C3)cc1` [Compound C272, 4-[(6R)-7-(3,4-dichlorobenzoyl)-2-{[(2S)-1-hydroxypropan-2-yl]amino}-6-methyl-4-oxo-5,6,7,8-tetrahydropyrido[3,4-d]pyrimidin-3(4H)-yl]-N-methylbenzamide]?
A: CC50 at 3 days [1]: > 50 µM; EC50 [2]: 2.39 µM

Q: What does the source list for `CCOC(=O)[C@H]1CC[C@@H](n2c(NC(C)C)nc3c(c2=O)C[C@@H](C)N(C(=O)c2ccc(Cl)c(Cl)c2)C3)CC1` [Compound C273, ethyl cis-4-[(6R)-7-(3,4-dichlorobenzoyl)-6-methyl-4-oxo-2-[(propan-2-yl)amino]-5,6,7,8-tetrahydropyrido[3,4-d]pyrimidin-3(4H)-yl]cyclohexane-1-carboxylate]?
A: CC50 at 3 days [1]: 33.4 µM; EC50 [2]: 0.31 µM

Q: For `CNC(=O)c1ccc(-n2c(NC(C)C)nc3c(c2=O)C[C@@H](C)N(C(=O)c2ccc(Cl)c(Cl)c2)C3)cc1F` [Compound C274, 4-[(6R)-7-(3,4-dichlorobenzoyl)-6-methyl-4-oxo-2-[(propan-2-yl)amino]-5,6,7,8-tetrahydropyrido[3,4-d]pyrimidin-3(4H)-yl]-2-fluoro-N-methylbenzamide], which CC50 at 3 days [1] is on record?
A: > 50 µM

Q: What about the EC50 [2] of the same compound?
A: 0.09 µM

Q: Which CC50 at 3 days [1] does the source give for `CNC(=O)c1ccc(-n2c(NCc3c[nH]c4ccc(OC)cc34)nc3c(c2=O)C[C@@H](C)N(C(=O)c2ccc(Cl)c(Cl)c2)C3)cc1` [Compound C275, 4-[(6R)-7-(3,4-dichlorobenzoyl)-2-{[(5-methoxy-1H-indol-3-yl)methyl]amino}-6-methyl-4-oxo-5,6,7,8-tetrahydropyrido[3,4-d]pyrimidin-3(4H)-yl]-N-methylbenzamide] here?
A: > 50 µM

Q: And the EC50 [2]?
A: 1.58 µM

Q: What does the source list for `CNC(=O)c1ccc(-n2c(N[C@@H](C)CCO)nc3c(c2=O)C[C@@H](C)N(C(=O)c2ccc(Cl)c(Cl)c2)C3)cc1` [Compound C276, 4-[(6R)-7-(3,4-dichlorobenzoyl)-2-{[(2S)-4-hydroxybutan-2-yl]amino}-6-methyl-4-oxo-5,6,7,8-tetrahydropyrido[3,4-d]pyrimidin-3(4H)-yl]-N-methylbenzamide]?
A: CC50 at 3 days [1]: > 50 µM; EC50 [2]: 1.68 µM

Q: For `CNC(=O)c1ccc(-n2c(NCc3c[nH]c4ccccc34)nc3c(c2=O)C[C@@H](C)N(C(=O)c2ccc(Cl)c(Cl)c2)C3)cc1` [Compound C277, 4-[(6R)-7-(3,4-dichlorobenzoyl)-2-{[(1H-indol-3-yl)methyl]amino}-6-methyl-4-oxo-5,6,7,8-tetrahydropyrido[3,4-d]pyrimidin-3(4H)-yl]-N-methylbenzamide], which CC50 at 3 days [1] is on record?
A: 40.1 µM

Q: And the EC50 [2]?
A: 1.27 µM

Q: What does the source list for `CNC(=O)c1ccc(-n2c(Nc3ccon3)nc3c(c2=O)C[C@@H](C)N(C(=O)c2ccc(Cl)c(Cl)c2)C3)cc1` [Compound C278, 4-[(6R)-7-(3,4-dichlorobenzoyl)-6-methyl-2-[(1,2-oxazol-3-yl)amino]-4-oxo-5,6,7,8-tetrahydropyrido[3,4-d]pyrimidin-3(4H)-yl]-N-methylbenzamide]?
A: CC50 at 3 days [1]: > 50 µM; EC50 [2]: 11 µM

Q: Which CC50 at 3 days [1] does the source give for `CC(C)Nc1ncc(-n2c(NC(C)C)nc3c(c2=O)C[C@@H](C)N(C(=O)c2ccc(Cl)c(Cl)c2)C3)cn1` [Compound C279, (6R)-7-(3,4-dichlorobenzoyl)-6-methyl-2-[(propan-2-yl)amino]-3-{2-[(propan-2-yl)amino]pyrimidin-5-yl}-5,6,7,8-tetrahydropyrido[3,4-d]pyrimidin-4(3H)-one] here?
A: > 46 µM

Q: What about the EC50 [2] of the same compound?
A: 0.31 µM

Q: For `CNC(=O)[C@H]1CC[C@@H](n2c(NC(C)C)nc3c(c2=O)C[C@@H](C)N(C(=O)c2ccc(Cl)c(Cl)c2)C3)CC1` [Compound C280, cis-4-[(6R)-7-(3,4-dichlorobenzoyl)-6-methyl-4-oxo-2-[(propan-2-yl)amino]-5,6,7,8-tetrahydropyrido[3,4-d]pyrimidin-3(4H)-yl]-N-methylcyclohexane-1-carboxamide], which CC50 at 3 days [1] is on record?
A: 24.6 µM

Q: And the EC50 [2]?
A: 0.1 µM

Q: With `CNC(=O)c1ccc(-n2c(NC(C)C)nc3c(c2=O)C[C@@H](C)N(C(=O)c2ccc(Cl)c(Cl)c2)C3)nn1` [Compound C281, 6-[(6R)-7-(3,4-dichlorobenzoyl)-6-methyl-4-oxo-2-[(propan-2-yl)amino]-5,6,7,8-tetrahydropyrido[3,4-d]pyrimidin-3(4H)-yl]-N-methylpyridazine-3-carboxamide] as the compound, how does the CC50 at 3 days [1] read?
A: > 50 µM

Q: And the EC50 [2]?
A: 0.16 µM

Q: Which results are given for `CNC(=O)c1ccc(-n2c(NCc3ccc4[nH]ccc4c3)nc3c(c2=O)C[C@@H](C)N(C(=O)c2ccc(Cl)c(Cl)c2)C3)cc1` [Compound C284, 4-[(6R)-7-(3,4-dichlorobenzoyl)-2-{[(1H-indol-5-yl)methyl]amino}-6-methyl-4-oxo-5,6,7,8-tetrahydropyrido[3,4-d]pyrimidin-3(4H)-yl]-N-methylbenzamide]?
A: CC50 at 3 days [1]: > 50 µM; EC50 [2]: 0.13 µM

Q: With `CNC(=O)c1cnc(-n2c(NC)nc3c(c2=O)C[C@@H](C)N(C(=O)c2ccc(Cl)c(Cl)c2)C3)cn1` [Compound C287, 5-[(6R)-7-(3,4-dichlorobenzoyl)-6-methyl-2-(methylamino)-4-oxo-5,6,7,8-tetrahydropyrido[3,4-d]pyrimidin-3(4H)-yl]-N-methylpyrazine-2-carboxamide] as the compound, how does the CC50 at 3 days [1] read?
A: > 50 µM

Q: And the EC50 [2]?
A: 0.75 µM

Q: For `CNC(=O)c1cnc(-n2c(NC(C)C)nc3c(c2=O)C[C@@H](C)N(C(=O)c2ccc(Cl)c(Cl)c2)C3)cn1` [Compound C288, 5-[(6R)-7-(3,4-dichlorobenzoyl)-6-methyl-4-oxo-2-[(propan-2-yl)amino]-5,6,7,8-tetrahydropyrido[3,4-d]pyrimidin-3(4H)-yl]-N-methylpyrazine-2-carboxamide], which CC50 at 3 days [1] is on record?
A: > 50 µM

Q: And the EC50 [2]?
A: 0.07 µM
